# From patent publication US20250236596A1, “HYDROXYLAMINE-BASED EGFR INHIBITORS FOR TREATMENT OF CANCER WITH BRAIN METASTASES” (University of Georgia Research Foundation, Inc., priority 2022, published 2025)
# How the values were obtained:
# [1] = Metabolic stability in hepatocytes; format: in vitro ADME; conditions: human and rat; result in words
# Experimental: Assessment of the compounds metabolic stability in incubations containing liver microsomes and hepatocytes of human and rat using the compound depletion approach was performed by Pharmaron Inc. Compound 15 underwent additional stability evaluation in monkey and dog hepatocytes. Microsome stability was assessed in duplicate (n=2) in the presence and absence of NADPH with liver microsomes (0.5 mg/mL) from human (BD Gentest) and SD rat (BD Gentest). Compounds were incubated in liver microsomes at 1 μM and samples (30 μL) were taken at 0.5, 15, 30, 45 and 60 min time points for analysis by LC-MS/MS. Hepatocyte stability was assessed in duplicate (n=2) at a working cell density of 0.5×10^6 cells/mL with hepatocytes from human (BioIVT), SD rat (BioIVT), cynomolgous monkey (RILD) or beagle dog (BioIVT). Compounds were incubated in hepatocytes at 1 μM and samples (25 μL) were taken at 0.5, 15, 30, 60, 90 and 120 min time points for analysis by LC-MS/MS. The in vitro half-life and intrinsic clearances were determined as previously described.^19
# In vitro half-life (in vitro t1/2) was determined from the slope value in: in vitro t1/2=−(0.693/k).
# Where, k, was determined by linear regression of the natural logarithm of the remaining percentage of the parent drug vs incubation time curve.
# CYP2C9 = CYP2C9 (Homo sapiens, UniProt P11712); test: Human CYP450 inhibition in human liver microsomes, CYP2C9; format: in vitro ADME; conditions: pooled human liver microsomes, probe diclofenac (6 μM), 4′-hydroxylation
# CYP2C9, sequence (P11712 whole entry, canonical isoform): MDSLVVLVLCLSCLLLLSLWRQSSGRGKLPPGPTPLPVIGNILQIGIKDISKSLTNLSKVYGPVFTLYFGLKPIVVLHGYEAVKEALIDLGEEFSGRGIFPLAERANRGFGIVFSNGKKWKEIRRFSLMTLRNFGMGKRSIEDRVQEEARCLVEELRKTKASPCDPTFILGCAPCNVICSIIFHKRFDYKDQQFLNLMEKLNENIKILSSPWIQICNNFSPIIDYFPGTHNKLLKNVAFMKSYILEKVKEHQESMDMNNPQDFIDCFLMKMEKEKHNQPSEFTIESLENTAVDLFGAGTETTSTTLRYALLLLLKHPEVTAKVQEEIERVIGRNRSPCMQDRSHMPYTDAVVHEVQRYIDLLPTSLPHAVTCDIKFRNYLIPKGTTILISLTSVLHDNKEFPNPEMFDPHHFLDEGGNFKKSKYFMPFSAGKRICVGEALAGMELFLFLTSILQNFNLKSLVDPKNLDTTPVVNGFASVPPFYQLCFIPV
# Experimental: Assessment of compound 15 was carried out at Pharmaron Inc. for its potential to inhibit cytochrome P450 (CYP) isoforms using human liver microsomes. The activities tested were CYP1A2-mediated phenacetin O-demethylation, CYP2C19-mediated (S)-mephenytoin 4′-hydroxylation, CYP2C9-mediated diclofenac 4′-hydroxylation, CYP2D6-mediated dextromethorphan O-demethylation and CYP3A4-mediated midazolam 1′-hydroxylation. Concentrations of substrates were phenacetin (40 μM), mephenytoin (50 μM), diclofenac (6 μM), dextromethorphan (2 μM) and midazolam (1 μM). Probe substrates phenacetin, mephenytoin and dextromethorphan were incubated at 37° for 20 min. Probe substrates diclofenac and midazolam were incubated at 37° for 5 min. […] The reactions were initiated by adding NADPH (1 mM final concentration) after a 5 min-preincubation and the assay was ran in duplicate (n=2). Samples were analyzed by UPLC-MS/MS.
# [2] = system: NCI-H3255 NSCLC cell line (EGFR L858R); test: CellTiter-Glo viability assay, NCI-H3255; format: cell-based; conditions: Homo sapiens, 72 h, read-out: antiproliferative IC50
# Experimental: The A431, HCC827, SK-BR-3, ZR-75-30, AU565 and Caco-2 cell lines were obtained from ATCC. The NCI-H1975 cell line was obtained from SIBS. The NCI-H3255 cell line was obtained from CoBioer. Engineered Ba/F3 cell lines were obtained from Crown Bioscience. MCKII-MDR1 cells were obtained from the Netherlands Cancer Institute. HEK293 cells were obtained from Invitrogen. A431 cells were cultured in DMEM (Life Technologies) with 10% FBS. HCC827, NCI-H1975 and AU565 cells were cultured in RPMI1640 (Invitrogen) with 10% FBS. NCI-H3255 cells were cultured in BEGM (Lonza) with 10% FBS. Ba/F3 EGFR-del E746_A750/C797S and Ba/F3 EGFR-L858R/C797S cells were cultured in RPMI (Invitrogen) with 10% FBS. SK-BR-3 cells were cultured in McCoy's 5a (Invitrogen) with 10% FBS. ZR-75-30 cells were cultured in RPMI1640 (Invitrogen) with 20% FBS. BT474 cells were cultured in DMEM (Gibco) with 10% FBS and 10 μg/mL Insulin. Caco-2 and MCKII-MDR1 culture information is given in the permeability studies section. […]
# Viability assays using A431, HCC827, NCI-H1975, NCI-H3255, Ba/F3 EGFR-del E746_A750/C797S, Ba/F3 EGFR-L858R/C797S, AU565, SK-BR-3 and ZR-75-30 cells were performed at Crown BioScience. […] Dose-response curves were generated and used to calculate the IC50 values which were calculated on GraphPad Prism from the non-linear regression equation fitted with a sigmoidal dose response and are presented as the mean±SEM.
# MDCKII-MDR1 cells = test: MDCKII-MDR1 cell permeability assay; format: in vitro ADME, canine; conditions: result in words
# Experimental: Compounds were evaluated at Pharmaron Inc. for their ability to permeate Caco-2 cells and MDCKII-MDR1 cells. A 96-well HTS Transwell plate (Corning) was used for the Caco-2 and MDCKII-MDR1 cell seeding. Caco-2 cells were seeded at a density of 6.86×10^5 cells/mL and cultivated for 14-18 days prior to assays. MDCKII-MDR1 cells were seeded at a density of 1.56×10^6 cells/mL and cultivated for 4-8 days prior to assays. To determine the rate of drug transport in both the absorptive (apical to basolateral (A-B)) and secretory (basolateral to apical (B-A)) directions, compounds (5 μM in DMSO for Caco-2 cells, and 1 μM in DMSO for MDCKII-MDR1 cells) were added to the donor wells. Plates were incubated at 37° C. for 2 h and samples (50 μL) were taken at the beginning and end of the incubation in both the donor and acceptor wells with the assay run in duplicate (n=2). Samples were analyzed by LC-MS/MS. The apparent permeability coefficient (Papp) in units (cm/s×10^−6) was calculated using the following equation.
# where, VA represents the volume (mL) in the acceptor well. Area is the surface of the membrane (0.143 cm^2 for Transwell-96 well plate) and time is the total transport time in sec.
# The efflux ratio was determined using the following equation: Efflux ratio=Papp (B-A)/Papp(A-B)
# Where, Papp (B-A) indicates the apparent permeability in the basolateral to apical direction, and Papp (A-B) indicates the apparent permeability in the apical to basolateral direction.
smiles,measurement,setting,value
"COc1cc2ncnc(Nc3cccc(Cl)c3F)c2cc1OCCON1CCN(C)CC1 [Compound 15, N-(3-chloro-2-fluorophenyl)-7-methoxy-6-(2-((4-methylpiperazin-1-yl)oxy)ethoxy)quinazolin-4-amine]",stability in hepatocytes,[1],good stability
same,IC50 at 5 min,CYP2C9,> 30000 nM
same,IC50,[2],7.2 nM
same,efflux,MDCKII-MDR1 cells,low efflux
same,permeability,MDCKII-MDR1 cells,excellent permeability
